# Data as given in ChEMBL document CHEMBL4184137, “Lysine Deacetylase Inhibitors in Parasites: Past, Present, and Future Perspectives” (J Med Chem, 2017).
# *1 amine or outer side, *2 acyl side, *3 side chain or, on linkers, in order; H or OH if unused. Where a SMILES comes first, the peptide text is derived from it. Bridges are numbered along the chain shown (N, C = ends). [ ]: non-standard residue; d: D form. X1 = CC(C)CCCCCCCCC[C@H](CC(=O)[*:1])O[*:2]
# Key:
# [1] = Selectivity index, ratio of IC50 for African green monkey Vero cells to IC50 for Plasmodium falciparum D6; type: toxicity; details: read-out: Ratio IC50
# Leishmania donovani [2] = experiment: Antilieshmanial activity against amastigote stage of Leishmania donovani by fluorimetric assay; type: functional, organism-based
# Plasmodium falciparum [3] = experiment: Antimalarial activity against Plasmodium falciparum using Malstat reagent by parasite lactate dehydrogenase assay; type: functional, organism-based
# Leishmania donovani [4] = experiment: Antilieshmanial activity against promastigote stage of Leishmania donovani by fluorimetric assay; type: functional, organism-based
# [5] = Selectivity index, ratio of IC50 for African green monkey Vero cells to IC50 for Plasmodium falciparum W2; type: toxicity; details: read-out: Ratio IC50
# Histone deacetylase = target: T1, Histone deacetylase (Plasmodium falciparum, UniProt Q9XYC7); experiment: Inhibition of recombinant Plasmodium falciparum HDAC1 using HDAC substrate-3 after 30 mins by fluorescence assay
# T1 sequence (Q9XYC7 whole entry): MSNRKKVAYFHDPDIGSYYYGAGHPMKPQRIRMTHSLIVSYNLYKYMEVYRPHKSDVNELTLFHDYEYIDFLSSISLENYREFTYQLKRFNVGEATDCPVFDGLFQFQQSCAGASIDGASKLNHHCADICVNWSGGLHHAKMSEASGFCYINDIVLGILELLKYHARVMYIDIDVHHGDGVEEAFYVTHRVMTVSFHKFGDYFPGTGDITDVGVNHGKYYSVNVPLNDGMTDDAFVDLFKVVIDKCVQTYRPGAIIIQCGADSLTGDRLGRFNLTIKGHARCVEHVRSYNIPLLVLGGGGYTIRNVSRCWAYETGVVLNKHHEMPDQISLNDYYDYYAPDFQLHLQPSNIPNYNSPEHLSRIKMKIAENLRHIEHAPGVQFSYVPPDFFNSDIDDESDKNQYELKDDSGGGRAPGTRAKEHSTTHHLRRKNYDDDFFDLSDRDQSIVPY
# Schistosoma mansoni = experiment: Antiparasitic activity against Schistosoma mansoni assessed as reduction in cell viability at 50 uM after 3 days relative to control; type: functional
# [6] = target: T2, Protein deacetylase HDAC6 (Homo sapiens, UniProt Q9UBN7); experiment: Inhibition of human HDAC6 using Z(Ac)Lys-AMC as substrate by fluorimetric assay
# T2 sequence (Q9UBN7 whole entry): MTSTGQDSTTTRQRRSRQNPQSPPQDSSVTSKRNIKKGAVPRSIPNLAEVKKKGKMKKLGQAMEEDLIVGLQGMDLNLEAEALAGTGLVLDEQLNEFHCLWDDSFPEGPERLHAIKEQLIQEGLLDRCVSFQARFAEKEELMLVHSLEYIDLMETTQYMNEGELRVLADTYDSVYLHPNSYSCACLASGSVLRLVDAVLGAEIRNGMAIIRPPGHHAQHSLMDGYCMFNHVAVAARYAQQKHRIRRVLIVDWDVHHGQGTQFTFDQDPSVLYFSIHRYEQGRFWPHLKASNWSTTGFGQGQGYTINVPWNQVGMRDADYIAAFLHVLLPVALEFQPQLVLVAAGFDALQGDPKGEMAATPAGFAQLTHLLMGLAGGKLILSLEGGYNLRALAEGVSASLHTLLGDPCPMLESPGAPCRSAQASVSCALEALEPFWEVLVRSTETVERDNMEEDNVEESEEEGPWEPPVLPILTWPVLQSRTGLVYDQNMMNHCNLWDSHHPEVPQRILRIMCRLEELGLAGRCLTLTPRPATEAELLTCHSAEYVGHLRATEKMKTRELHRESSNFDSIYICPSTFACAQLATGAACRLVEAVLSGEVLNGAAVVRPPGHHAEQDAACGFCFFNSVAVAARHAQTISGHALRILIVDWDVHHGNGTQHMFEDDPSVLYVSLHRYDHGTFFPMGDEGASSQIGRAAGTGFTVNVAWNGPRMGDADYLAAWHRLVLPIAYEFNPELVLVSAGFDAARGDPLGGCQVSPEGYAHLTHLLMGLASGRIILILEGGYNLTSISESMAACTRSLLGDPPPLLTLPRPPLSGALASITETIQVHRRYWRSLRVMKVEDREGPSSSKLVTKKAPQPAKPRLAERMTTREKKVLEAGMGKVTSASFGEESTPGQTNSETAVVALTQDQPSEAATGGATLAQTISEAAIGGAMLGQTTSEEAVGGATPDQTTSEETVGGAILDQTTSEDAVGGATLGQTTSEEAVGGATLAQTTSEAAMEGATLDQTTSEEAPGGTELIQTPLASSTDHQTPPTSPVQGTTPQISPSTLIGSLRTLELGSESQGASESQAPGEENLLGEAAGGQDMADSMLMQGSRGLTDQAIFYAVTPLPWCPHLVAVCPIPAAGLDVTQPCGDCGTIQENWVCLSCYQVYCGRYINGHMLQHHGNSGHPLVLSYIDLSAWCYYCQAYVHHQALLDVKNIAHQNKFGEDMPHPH
# Histone deacetylase 8 [7] = target: T3, Histone deacetylase 8 (Homo sapiens, UniProt Q9BY41); experiment: Inhibition of human HDAC8 using Fluor de Lys(R) as substrate by fluorimetric assay
# T3 sequence (Q9BY41 whole entry): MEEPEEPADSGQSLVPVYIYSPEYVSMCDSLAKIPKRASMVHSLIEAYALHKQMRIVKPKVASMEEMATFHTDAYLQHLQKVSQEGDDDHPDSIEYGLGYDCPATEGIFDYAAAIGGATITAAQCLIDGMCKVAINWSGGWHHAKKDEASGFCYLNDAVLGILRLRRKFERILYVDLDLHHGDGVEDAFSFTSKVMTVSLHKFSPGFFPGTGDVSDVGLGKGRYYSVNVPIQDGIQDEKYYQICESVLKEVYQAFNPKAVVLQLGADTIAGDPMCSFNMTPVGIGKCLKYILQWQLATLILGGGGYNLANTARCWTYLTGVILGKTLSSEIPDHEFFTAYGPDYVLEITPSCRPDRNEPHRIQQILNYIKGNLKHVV
# Histone deacetylase 1 = Histone deacetylase 1 (Homo sapiens, UniProt Q13547); experiment: Inhibition of human HDAC1 using Z(Ac)Lys-AMC as substrate by fluorimetric assay
# Chain of Histone deacetylase 1 (Q13547 whole entry): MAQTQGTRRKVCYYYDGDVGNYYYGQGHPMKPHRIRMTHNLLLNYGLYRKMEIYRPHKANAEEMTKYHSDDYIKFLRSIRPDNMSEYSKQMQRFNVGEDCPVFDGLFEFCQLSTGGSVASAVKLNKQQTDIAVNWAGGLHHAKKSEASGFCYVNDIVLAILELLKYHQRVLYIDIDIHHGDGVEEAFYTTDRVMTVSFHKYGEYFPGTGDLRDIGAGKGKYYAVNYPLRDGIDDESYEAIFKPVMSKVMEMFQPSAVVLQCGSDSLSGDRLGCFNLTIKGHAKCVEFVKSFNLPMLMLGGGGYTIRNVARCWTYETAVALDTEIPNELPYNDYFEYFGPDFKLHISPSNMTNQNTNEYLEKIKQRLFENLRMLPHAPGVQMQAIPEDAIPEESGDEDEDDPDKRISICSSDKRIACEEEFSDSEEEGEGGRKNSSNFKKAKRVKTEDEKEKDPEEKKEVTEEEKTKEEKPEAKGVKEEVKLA
# Histone deacetylase 8 [8] = target: T4, Histone deacetylase 8 (Schistosoma mansoni, UniProt A5H660); experiment: Inhibition of Schistosoma mansoni HDAC8 using Fluor de Lys(R) as substrate by fluorimetric assay
# T4 sequence (A5H660 whole entry): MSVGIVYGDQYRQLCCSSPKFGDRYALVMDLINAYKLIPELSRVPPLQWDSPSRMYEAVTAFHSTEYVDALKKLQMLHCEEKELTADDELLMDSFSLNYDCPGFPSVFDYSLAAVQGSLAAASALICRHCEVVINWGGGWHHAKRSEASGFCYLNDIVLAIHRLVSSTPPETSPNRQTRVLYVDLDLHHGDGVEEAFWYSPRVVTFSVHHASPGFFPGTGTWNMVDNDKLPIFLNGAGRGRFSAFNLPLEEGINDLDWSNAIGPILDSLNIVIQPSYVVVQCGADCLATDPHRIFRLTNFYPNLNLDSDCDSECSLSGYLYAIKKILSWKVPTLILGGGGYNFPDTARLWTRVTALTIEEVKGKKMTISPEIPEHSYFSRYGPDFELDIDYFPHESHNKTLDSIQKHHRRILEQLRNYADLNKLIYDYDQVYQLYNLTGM
# [9] = target: T5, NAD-dependent protein deacetylase sirtuin-1 (Homo sapiens, UniProt Q96EB6); experiment: Inhibition of human SIRT1 in presence of NAD+ by fluorimetric method
# T5 sequence (Q96EB6 whole entry): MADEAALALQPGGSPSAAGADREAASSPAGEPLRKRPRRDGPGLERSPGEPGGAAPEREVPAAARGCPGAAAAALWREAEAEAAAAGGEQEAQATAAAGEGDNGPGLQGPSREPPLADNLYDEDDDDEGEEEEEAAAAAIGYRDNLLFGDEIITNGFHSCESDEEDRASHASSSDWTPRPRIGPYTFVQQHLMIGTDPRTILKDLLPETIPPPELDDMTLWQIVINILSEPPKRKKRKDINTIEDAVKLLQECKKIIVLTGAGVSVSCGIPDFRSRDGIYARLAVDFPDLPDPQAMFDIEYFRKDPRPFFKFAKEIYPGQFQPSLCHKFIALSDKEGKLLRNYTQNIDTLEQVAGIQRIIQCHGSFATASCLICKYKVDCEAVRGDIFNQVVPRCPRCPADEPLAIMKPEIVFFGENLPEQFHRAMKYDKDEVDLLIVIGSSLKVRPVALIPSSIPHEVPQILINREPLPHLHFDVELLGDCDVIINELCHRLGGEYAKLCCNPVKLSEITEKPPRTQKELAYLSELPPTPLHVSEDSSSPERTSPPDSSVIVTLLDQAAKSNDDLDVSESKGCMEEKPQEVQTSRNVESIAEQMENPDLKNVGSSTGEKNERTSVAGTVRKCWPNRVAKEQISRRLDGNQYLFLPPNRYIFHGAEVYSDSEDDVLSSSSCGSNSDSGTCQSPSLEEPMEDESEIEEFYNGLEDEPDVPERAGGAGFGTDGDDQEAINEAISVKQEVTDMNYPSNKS
# Leishmania infantum = experiment: Antileishmanial activity against amastigote stage of Leishmania infantum MHOM/MA671TMAP263 expressing luciferase after 72 hrs by luciferase assay; type: functional, organism-based; details: MHOM/MA671TMAP263, 72 h
# [10] = Selectivity index, ratio of IC50 for N-terminal His6-tagged recombinant Leishmania infantum SIR2RP1 expressed in Escherichia coli to IC50 for human SIRT1
# [11] = target: T5, NAD-dependent protein deacetylase sirtuin-1; experiment: Inhibition of human SIRT1
# [12] = Inhibition of Plasmodium falciparum Sir2A
# Plasmodium falciparum [13] = experiment: Antiplasmodial activity against Plasmodium falciparum 3D7 assessed as growth inhibition after 24 hrs by measuring incorporation of [3H]-hypoxanthine by liquid scintillation counting method; type: functional, organism-based
compound,measurement,setting,value
CC[C@H]1OC(=O)[C@H](C)[C@@H](O[C@H]2C[C@@](C)(OC)[C@@H](O)[C@H](C)O2)[C@H](C)[C@@H](O[C@@H]2O[C@H](C)C[C@H](N(C)Cc3ccc(-c4cn(CCCCCCCCCC(=O)NO)nn4)cc3)[C@H]2O)[C@](C)(O)C[C@@H](C)C(=O)[C@H](C)[C@@H](O)[C@]1(C)O,selectivity ratio,[1],> 3.4
same,IC50,Leishmania donovani [2],4.7 µM
same,IC50,Plasmodium falciparum [3],0.76 to 1.32 µM
same,IC50,Leishmania donovani [4],3.2 µM
same,selectivity ratio,[5],> 6
same,IC50,Histone deacetylase,0.401 µM
O=C(NO)c1sc2ccccc2c1Cl,Activity,Schistosoma mansoni,100%
same,IC50,[6],37.4 µM
same,IC50,Histone deacetylase 8 [7],3.1 µM
same,IC50,Histone deacetylase 1,19.4 µM
same,IC50,Histone deacetylase 8 [8],4.3 µM
O=C1c2cccc3cccc(c23)C(=O)N1CCCNCCCCCCCCCNCCCN1C(=O)c2cccc3cccc(c23)C1=O,IC50,[9],97.4 µM
same,IC50,Leishmania infantum,6.03 µM
same,Ratio IC50,[10],17
CC(C)CCCCCCCCC[C@@H]1CC(=O)N[C@@H](CCC(=O)O)C(=O)N[C@@H](CC(C)C)C(=O)N[C@H](CC(C)C)C(=O)N[C@@H](C(C)C)C(=O)N[C@@H](CC(=O)O)C(=O)N[C@H](CC(C)C)C(=O)N[C@@H](CC(C)C)C(=O)O1 [SURFACTIN] (EL[dL]VD[dL]L; linker N-C via X1),IC50,[11],> 600 µM
same,IC50,[12],35 µM
same,IC50,Plasmodium falciparum [13],9 µM
